According to patent US20230233569A1 (Revolution Medicines, Inc., priority 2020, published 2023):

Experiments:
KRAS Q61H = KRAS Q61H (Homo sapiens, UniProt P01116+P62937, Q61H); assay: Disruption of BRAF RBD interaction with Ras (FRET / MOA assay, with Cyclophilin A); format: biochemical; settings: KRAS Q61H; read-out: KRAS Q61H FRET data IC50
In short: (§1)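 TR-FRET in 25 mM HEPES pH 7.3, 100 mM NaCl, 5 mM MgCl2, 0.1% BSA: 25 μM Cyclophilin A, 12.5 nM His6-Ras-GMPPNP, 50 nM GST-BRAF RBD with compound (10-point 3-fold series from 30 μM), 3 h at 25° C. Anti-His Eu/anti-GST APC added, 1.5 h more; IC50 from decreased FRET ratio versus DMSO.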

NRAS Q61R = NRAS Q61R (Homo sapiens, UniProt P01111+P62937, Q61R); assay: as above; format: biochemical; settings: NRAS Q61R; read-out: NRAS Q61R FRET data IC50
NRAS Q61R, sequence (P01111 whole entry Q61R): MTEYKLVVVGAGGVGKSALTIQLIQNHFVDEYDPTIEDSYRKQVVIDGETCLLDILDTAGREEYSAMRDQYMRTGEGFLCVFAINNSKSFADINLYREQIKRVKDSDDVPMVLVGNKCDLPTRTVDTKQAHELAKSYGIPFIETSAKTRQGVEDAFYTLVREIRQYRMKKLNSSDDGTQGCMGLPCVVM
NRAS Q61R, sequence (P62937 whole entry): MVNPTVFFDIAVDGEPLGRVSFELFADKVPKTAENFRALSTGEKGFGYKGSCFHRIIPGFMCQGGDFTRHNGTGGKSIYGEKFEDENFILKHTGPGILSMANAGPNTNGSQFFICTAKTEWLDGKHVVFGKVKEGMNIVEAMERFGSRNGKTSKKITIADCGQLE
In short: as §1

NRAS Q61K = NRAS Q61K (Homo sapiens, UniProt P01111+P62937, Q61K); assay: as above; format: biochemical; settings: NRAS Q61K; read-out: NRAS Q61K FRET data IC50
NRAS Q61K, sequence (P01111 whole entry Q61K): as the sequence (P01111 whole entry Q61R) above, with R61K counted along it
NRAS Q61K, sequence (P62937 whole entry): as the sequence (P62937 whole entry) above
In short: as §1

[1] = tested on: K-Ras G12C (NCI-H358 cells); assay: Potency assay: pERK (AlphaLISA SureFire or In-Cell Western); format: cell-based; settings: Homo sapiens, NCI-H358; H358 KRAS G12C; read-out: pERK EC50
In short: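 NCI-H358 cells plated overnight, then treated 4 h at 37 °C with 10-point 3-fold DMSO dilutions (10 mM top stock), in duplicate. pERK1/2 read by AlphaLISA SureFire Ultra lysate assay or by In-Cell Western with DRAQ5 DNA stain. IC50 from 4-parameter sigmoidal fit of signal vs log concentration.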

KRAS Q61H, sequence (P01116 1-169 isoform P01116-2 Q61H limits assumed): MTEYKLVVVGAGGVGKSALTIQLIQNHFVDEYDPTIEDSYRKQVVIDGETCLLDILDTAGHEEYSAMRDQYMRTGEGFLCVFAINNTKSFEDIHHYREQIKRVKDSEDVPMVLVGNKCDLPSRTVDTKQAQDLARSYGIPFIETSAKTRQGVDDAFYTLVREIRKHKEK
KRAS Q61H, sequence (P62937 whole entry): as the sequence (P62937 whole entry) above

| IC50 (KRAS Q61H) | IC50 (NRAS Q61R) | IC50 (NRAS Q61K) | EC50 [1] | Structure (SMILES) |
| --- | --- | --- | --- | --- |
| 10 to 100 nM | 10 to 100 nM | 10 to 100 nM | < 5000 nM | C=CC(=O)N1CCO[C@@]2(CCN(C(=O)N(C)[C@H](C(=O)N[C@H]3Cc4nc(cs4)-c4ccc5c(c4)c(c(-c4cccnc4[C@H](C)OC)n5CC(F)(F)F)CC(C)(C)COC(=O)C4CCCN(N4)C3=O)C(C)C)C2)C1 (some centres unmarked) [Example A594] |
| 100 to 1000 nM | 100 to 1000 nM | 100 to 1000 nM | < 5000 nM | C=CC(=O)N1CCO[C@H]2CN(C(=O)N(C)[C@H](C(=O)N[C@H]3Cc4cccc(n4)-c4ccc5c(c4)c(c(-c4cccnc4[C@H](C)OC)n5CC(F)(F)F)CC(C)(C)COC(=O)C4CCCN(N4)C3=O)C(C)C)C[C@H]21 (some centres unmarked) [Example A595] |
| 10 to 100 nM | 10 to 100 nM | 10 to 100 nM | < 5000 nM | C=CC(=O)N1CCC2(C1)CN(C(=O)N(C)[C@H](C(=O)N[C@H]1Cc3nc(cs3)-c3ccc4c(c3)c(c(-c3cccnc3[C@H](C)OC)n4CC(F)(F)F)CC(C)(C)COC(=O)C3CCCN(N3)C1=O)C(C)C)C2 (some centres unmarked) [Example A603] |
| 10 to 100 nM | 100 to 1000 nM | 100 to 1000 nM | < 5000 nM | C=CC(=O)N1CCOC2(CCN(C(=O)N(C)[C@H](C(=O)N[C@H]3Cc4cc(CF)cc(c4)-c4ccc5c(c4)c(c(-c4cccnc4[C@H](C)OC)n5CC(F)(F)F)CC(C)(C)COC(=O)C4CCCN(N4)C3=O)C(C)C)CC2)C1 (some centres unmarked) [Example A605] |
| 10 to 100 nM | 100 to 1000 nM | 100 to 1000 nM | < 5000 nM | C=CC(=O)N1CCOC2(CCN(C(=O)N(C)[C@H](C(=O)N[C@H]3Cc4nc(n(C)n4)-c4ccc5c(c4)c(c(-c4cccnc4[C@H](C)OC)n5CC(F)(F)F)CC(C)(C)COC(=O)C4CCCN(N4)C3=O)C(C)C)CC2)C1 (some centres unmarked) [Example A606] |
| 10 to 100 nM | 100 to 1000 nM | 100 to 1000 nM | < 5000 nM | C=CC(=O)N1CCOC2(CCN(C(=O)N(C)[C@H](C(=O)N[C@H]3Cc4cccc(c4)-c4ccc5c(c4)c(c(-c4cccnc4[C@H](C)OC)n5CC(F)(F)F)CC(C)(C)COC(=O)C4CCCN(N4)C3=O)C(C)C)CC2)C1 (some centres unmarked) [Example A608] |
| 10 to 100 nM | 10 to 100 nM | 10 to 100 nM | < 5000 nM | C=CC(=O)N1CCO[C@H]2CCN(C(=O)N(C)[C@H](C(=O)N[C@H]3Cc4nc(cs4)-c4ccc5c(c4)c(c(-c4cccnc4[C@H](C)OC)n5CC)CC(C)(C)COC(=O)C4CCCN(N4)C3=O)C(C)C)C[C@@H]21 (some centres unmarked) [Example A609] |
| 100 to 1000 nM | 100 to 1000 nM | 100 to 1000 nM | < 5000 nM | C=CC(=O)N1CCO[C@H]2CN(C(=O)N(C)[C@H](C(=O)N[C@H]3Cc4cccc(c4)-c4ccc5c(c4)c(c(-c4cccnc4[C@H](C)OC)n5CC)CC(C)(C)COC(=O)C4CCCN(N4)C3=O)C(C)C)C[C@H]21 (some centres unmarked) [Example A610] |

The remaining lines, values behind:

| Structure (SMILES) | IC50 (KRAS Q61H) | IC50 (NRAS Q61R) | IC50 (NRAS Q61K) | EC50 [1] |
| --- | --- | --- | --- | --- |
| C=CC(=O)N1CC[C@H](C(=O)N(C)[C@H](C(=O)N[C@H]2Cc3cc(O)cc(c3)-c3ccc4c(c3)c(c(-c3cccnc3)n4C3CC3)CC(C)(C)COC(=O)[C@@H]3CCCN(N3)C2=O)C(C)C)C1 [Example A160] | 1000 to 10000 nM | > 10000 nM | > 10000 nM | < 5000 nM |
| C=CC(=O)N1CC[C@H](C(=O)N(C)[C@H](C(=O)N[C@H]2Cc3cc(O)cc(c3)-c3ccc4c(c3)c(c(-c3cc(C)cnc3[C@H](C)OC)n4CC)CC(C)(C)COC(=O)[C@@H]3CCCN(N3)C2=O)C(C)C)C1 [Example A167] | 10 to 100 nM | 100 to 1000 nM | 100 to 1000 nM | < 5000 nM |
| CC#CC(=O)N1CC[C@H](C(=O)N(C)[C@H](C(=O)N[C@H]2Cc3nc(cs3)-c3ccc4c(c3)c(c(-c3cccnc3[C@H](C)OC)n4CC)CC(C)(C)COC(=O)[C@@H]3CCCN(N3)C2=O)C(C)C)C1 [Example A168] | 1000 to 10000 nM | 1000 to 10000 nM | 1000 to 10000 nM | < 5000 nM |
| C=CS(=O)(=O)N1CC[C@H](C(=O)N(C)[C@H](C(=O)N[C@H]2Cc3nc(cs3)-c3ccc4c(c3)c(c(-c3cncnc3)n4CC)CC(C)(C)COC(=O)[C@@H]3CCCN(N3)C2=O)C(C)C)C1 [Example A170] | > 10000 nM | > 10000 nM | > 10000 nM | < 5000 nM |
| C=CC(=O)N1CC[C@H](C(=O)N(C)[C@H](C(=O)N[C@H]2Cc3cc(O)cc(c3)-c3cnc4c(c3)c(c(-c3ccccc3CCOC)n4CC)CC(C)(C)COC(=O)[C@@H]3CCCN(N3)C2=O)C(C)C)C1 [Example A210] | 1000 to 10000 nM | > 10000 nM | 1000 to 10000 nM | < 5000 nM |
| C=CC(=O)N1CC[C@H](C(=O)N(C)[C@H](C(=O)N[C@H]2Cc3cc(O)cc(c3)-c3ccc4c(c3)c(c(-c3ccnc5c3[C@@H](OC)CC5)n4CC)CC(C)(C)COC(=O)[C@@H]3CCCN(N3)C2=O)C(C)C)C1 [Example A275] | 10 to 100 nM | 100 to 1000 nM | 100 to 1000 nM | < 5000 nM |
| C=CC(=O)N1CC[C@@H](N(C)C(=O)N(C)[C@H](C(=O)N[C@H]2Cc3nc(cs3)-c3ccc4c(c3)c(c(-c3cccnc3[C@H](C)OC)n4CC)CC(C)(C)COC(=O)[C@@H]3CCCN(N3)C2=O)C(C)C)C1 [Example A349] | 10 to 100 nM | 100 to 1000 nM | 10 to 100 nM | < 5000 nM |
| CCn1c(-c2cccnc2[C@H](C)OC)c2c3cc(ccc31)-c1csc(n1)C[C@H](NC(=O)[C@H](C(C)C)N(C)C(=O)N1CC(N(C)C(=O)C#CC(C)(C)N3CCC3)C1)C(=O)N1CCC[C@H](N1)C(=O)OCC(C)(C)C2 [Example A379] | 10 to 100 nM | 100 to 1000 nM | 100 to 1000 nM | < 5000 nM |
| C=CC(=O)N(C)C1CCN(C(=O)N(C)[C@H](C(=O)N[C@H]2Cc3nc(cs3)-c3ccc4c(c3)c(c(-c3cccnc3[C@H](C)OC)n4CC)CC(C)(C)COC(=O)[C@@H]3CCCN(N3)C2=O)C(C)C)C1 (some centres unmarked) [Example A384] | 10 to 100 nM | 100 to 1000 nM | 10 to 100 nM | < 5000 nM |
| CCn1c(-c2cccnc2[C@H](C)OC)c2c3cc(ccc31)N1CCO[C@@](C)(CC(NC(=O)[C@H](C(C)C)N(C)C(=O)C3(F)CCN(C(=O)C#CC(C)(C)N(C)C)CC3)C(=O)N3CCC[C@H](N3)C(=O)OCC(C)(C)C2)C1 (some centres unmarked) [Example A550] | 1000 to 10000 nM | 1000 to 10000 nM | 1000 to 10000 nM | < 5000 nM |
| C=CC(=O)N1CCO[C@H]2CN(C(=O)N(C)[C@H](C(=O)N[C@H]3CN4CCC=C(C4)c4ccc5c(c4)c(c(-c4cccnc4[C@H](C)OC)n5CC)CC(C)(C)COC(=O)[C@@H]4CCCN(N4)C3=O)C(C)C)C[C@H]21 [Example A552] | 100 to 1000 nM | 1000 to 10000 nM | 1000 to 10000 nM | < 5000 nM |
| CCn1c(-c2cccnc2[C@H](C)OC)c2c3cc(ccc31)-c1cccc(c1)C[C@H](NC(=O)[C@H](C(C)C)N1CC[C@]3(CCN(C(=O)C#C[C@]4(N(C)C)CCOC4)C3)C1=O)C(=O)N1CCC[C@H](N1)C(=O)OCC(C)(C)C2 [Example A559] | 100 to 1000 nM | 1000 to 10000 nM | 1000 to 10000 nM | < 5000 nM |
| C=CC(=O)N1CCOC2(CCN(C(=O)N(C)[C@H](C(=O)N[C@H]3CN4CCC=C(C4)c4ccc5c(c4)c(c(-c4cccnc4[C@H](C)OC)n5CC)CC(C)(C)COC(=O)[C@@H]4CCCN(N4)C3=O)C(C)C)CC2)C1 [Example A563] | 1000 to 10000 nM | > 10000 nM | 1000 to 10000 nM | < 5000 nM |
| CCn1c(-c2cccnc2[C@H](C)OC)c2c3cc(ccc31)-c1cccc(c1)C[C@H](NC(=O)[C@H](C(C)C)N1CC[C@]3(CCN(C(=O)C#C[C@@H]4COCCN4C4COC4)C3)C1=O)C(=O)N1CCC[C@H](N1)C(=O)OCC(C)(C)C2 [Example A565] | 1000 to 10000 nM | > 10000 nM | > 10000 nM | < 5000 nM |
| CCn1c(-c2cccnc2[C@H](C)OC)c2c3cc(ccc31)-c1cccc(c1)C[C@H](NC(=O)[C@@H](CN1CC[C@]3(CCN(C(=O)C#C[C@H]4COCCN4C)C3)C1=O)C(C)C)C(=O)N1CCCC(N1)C(=O)OCC(C)(C)C2 (some centres unmarked) [Example A592] | 1000 to 10000 nM | > 10000 nM | > 10000 nM | < 5000 nM |
